Patent publication US20090215778A1, “Alpha-substituted Arylmethyl Piperazine Pyrazolo [1,5-alpha]Pyrimidine Amide Derivatives” (priority 2007, published 2009)
Where two headings read alike, the source gives them in different places.

How the values were obtained:
[1] = biological target: T1, HIV Env six-helix bundle (6HB) structure (Human immunodeficiency virus type 1 group M subtype B, UniProt P04579); experiment: Six-helix bundle (6HB) assay; assay type: cell-based, HIV-1 (strain RF)
T1 construct: H9 cells chronically infected with HIV-1 (H9/HIV-1RF); endogenous in cells; host or cells: H9 cells chronically infected with HIV-1 strain RF (Env is made from the virus in the infected cells, not by transfection)
T1 sequence (P04579 32-519): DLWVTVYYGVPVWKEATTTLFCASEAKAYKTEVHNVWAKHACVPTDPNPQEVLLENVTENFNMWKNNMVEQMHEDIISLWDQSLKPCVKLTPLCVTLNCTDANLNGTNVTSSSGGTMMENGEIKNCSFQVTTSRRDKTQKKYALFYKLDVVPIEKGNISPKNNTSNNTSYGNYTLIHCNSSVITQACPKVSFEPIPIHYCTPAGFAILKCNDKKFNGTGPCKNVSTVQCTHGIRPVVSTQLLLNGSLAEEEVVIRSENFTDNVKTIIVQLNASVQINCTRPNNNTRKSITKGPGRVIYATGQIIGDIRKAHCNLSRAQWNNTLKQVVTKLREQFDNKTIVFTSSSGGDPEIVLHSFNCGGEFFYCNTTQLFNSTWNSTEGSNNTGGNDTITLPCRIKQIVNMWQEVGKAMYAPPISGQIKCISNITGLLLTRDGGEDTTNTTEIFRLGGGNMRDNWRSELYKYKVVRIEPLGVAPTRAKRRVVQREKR
T1 sequence (P04579 520-865): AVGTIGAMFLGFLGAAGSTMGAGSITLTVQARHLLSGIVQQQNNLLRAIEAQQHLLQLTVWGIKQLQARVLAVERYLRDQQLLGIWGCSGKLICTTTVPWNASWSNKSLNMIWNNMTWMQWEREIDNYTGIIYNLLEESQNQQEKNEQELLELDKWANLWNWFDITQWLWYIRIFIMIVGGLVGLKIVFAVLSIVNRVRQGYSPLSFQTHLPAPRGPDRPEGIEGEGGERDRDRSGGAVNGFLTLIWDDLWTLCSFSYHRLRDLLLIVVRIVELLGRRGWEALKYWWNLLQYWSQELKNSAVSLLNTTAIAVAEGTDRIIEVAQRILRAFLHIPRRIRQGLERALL
Protocol: 3×10^6H9 cells were incubated with 1 mL of HIV-1 (strain RF) supplemented with 40 μg/mL of DEAE-dextran. Virus and cells were incubated together at 37° C. for 2-4 hours with sporadic shaking to resuspend cells. 10 mL of media (RPMI 1640 containing 10% fetal bovine serum and supplemented with 50 μg/mL gentamicin) was then added and the virus-cell coculture was incubated at 37° C. in a humidified 5% CO2 incubator. 3 days post-infection and every 2-3 days thereafter, the infected H9/HIV-1RF cells were centrifuged, the supernatant was removed, and the cells were resuspended at a density of 0.3×10^6 cells/mL in media (RPMI 1640 containing 10% fetal bovine serum and supplemented with 50 μg/mL gentamicin). Chronically infected H9/HIV-1RF cells were used in experiments starting 12-15 days after infection and up to 40 days post-infection.
This assay determines the effect of compounds on conformational changes in HIV envelope glycoprotein (Env) that are required in order for Env to mediate the fusion of the viral and cellular membranes during virus entry and infection. Specifically, this assay measures the effect of compounds on the formation of the HIV Env six-helix bundle (6HB) structure.
H9 cells chronically infected with HIV-1 (H9/HIV-1RF) were resuspended in Stain/Wash Buffer (1% bovine serum albumin, 0.1% sodium azide in phosphate-buffered saline) and aliquoted at 2.5×10^5 cells per well into 96-well V-bottom plates containing various concentrations of test compounds. Cells and compounds were incubated for 30 minutes at 37° C. Recombinant soluble CD4 (sCD4) was then added to a final concentration of 1 μg/mL. Negative control wells contained no sCD4 and no test compound. Positive control wells contained sCD4 but no test compound. The plate was incubated for 1 hour at 37° C. to allow the sCD4 to bind to HIV Env and induce conformational changes in the Env protein. Antibody that is specific for the HIV Env six-helix bundle conformation was then added (1 μL polyclonal rabbit serum per well), and the plate was incubated for an additional 1 hour at 37° C. to permit antibody binding. The cells were then washed once with Stain/Wash Buffer to remove compound and excess antibody. The cells were resuspended in Stain/Wash Buffer containing PE-labeled anti-rabbit secondary antibody (KPL) at 0.25 μg per well. The cells were incubated for 45 min at 4° C. to permit secondary antibody binding. Fluorescence was detected using a BD FACSArray™ bioanalyzer. Compounds that inhibited Env conformational changes were identified as those that decreased primary antibody binding to the six-helix bundle epitope resulting in a decrease in fluorescence signal.

HIV-1, NL4-3 strain = experiment: Virus infection assay (virus entry and single-cycle infection); assay type: cell-based; conditions: Human immunodeficiency virus 1, NL43, TZM-b1, read-out: Nl4
Protocol: TZM-b1 indicator cells were propagated in Dulbecco's Modified Eagle's Medium (DMEM) containing 10% fetal bovine serum (FBS, heat-inactivated) and supplemented with gentamicin (50 ug/mL).
This assay determines the effects of compounds on virus entry and single-cycle infection of cells. In this assay, virus (HIV-1, NL4-3 strain) is added to indicator cells expressing the CD4 receptor and both the CXCR4 and CCR5 co-receptor. The cells contain both a lac Z and a luciferase reporter gene under control of the viral LTR transcription promoter. The cells and virus are incubated together in the presence of various concentrations of test compounds. Successful infection of the cells by the virus permits activation of the reporter gene by the viral Tat transcription factor. The resulting beta-galactosidase or luciferase activity is quantitated using a chemiluminescent substrate and a luminescent plate reader.
Specifically, one day prior to infection, 1.5×10^4 TZM-b1 indicator cells were added to each well of a 96-well microtiter plate. On the day of the experiment, virus (MOI 0.01) in 50 μL of medium (Dulbecco's Modified Eagle's Medium) supplemented with DEAE-dextran at a final concentration of 80 μg/mL was added to cells along with various concentrations of test compound in 50 μL of Dulbecco's Modified Eagle's Medium. Control wells had virus alone. Following a 4 hr incubation at 37° C., complete media [DMEM supplemented with 10% fetal bovine serum (FBS, heat-inactivated) and gentamicin (50 ug/mL)] was added. One day post-infection the level of virus infection was quantitated by detection of β-galactosidase expression using the Gal-Screen system (Applied Biosystems).

SMILES	IC50 [1]	IC50 (HIV-1, NL4-3 strain)	IC50 ([1]; read-out: 6HB IC50, H9 cells chronically infected with HIV-1 RF, sCD4-induced six-helix bundle formation)
COc1ccc(-c2nc3c(C(=O)N4CCN([C@@H](C)c5cccc(C#N)c5)C[C@H]4C)cnn3c(C(F)(F)F)c2C)cc1	< 1000 nM	< 1000 nM	–
COc1ccc(-c2nc3c(C(=O)N4CCN(C(CO)c5ccc(C(C)=O)s5)C[C@H]4C)cnn3c(C(F)(F)F)c2C)cc1 (stereo partly drawn)	1100 to 10000 nM	< 1000 nM	–
COc1ccc(-c2nc3c(C(=O)N4CCN(C(CO)c5ccc(Cl)nc5)C[C@H]4C)cnn3c(C(F)(F)F)c2C)cc1 (stereo partly drawn)	< 1000 nM	< 1000 nM	–
COc1ccc(-c2nc3c(C(=O)N4CCN(C(CO)c5ccc(C#N)cc5)C[C@H]4C)cnn3c(C(F)(F)F)c2C)cc1 (stereo partly drawn)	1100 to 10000 nM	1100 to 10000 nM	–
COc1ccc(-c2nc3c(C(=O)N4CCN(C(C(N)=O)c5ccccc5)C[C@H]4C)cnn3c(C(F)(F)F)c2C)cc1 (stereo partly drawn) [1-piperazineacetamide, 4-[[5-(4-methoxyphenyl)-6-methyl-7-(trifluoromethyl)pyrazolo[1,5-α]pyrimidin-3-yl]carbonyl]-3-methyl-α-phenyl-, (3R)-]	< 1000 nM	< 1000 nM	–
CNC(=O)C(c1ccccc1)N1CCN(C(=O)c2cnn3c(C(F)(F)F)c(C)c(-c4ccc(OC)cc4)nc23)[C@H](C)C1 (stereo partly drawn) [1-piperazineacetamide, 4-[[5-(4-methoxyphenyl)-6-methyl-7-(trifluoromethyl)pyrazolo[1,5-α]pyrimidin-3-yl]carbonyl]-N,3-dimethyl-α-phenyl-, (3R)-]	< 1000 nM	< 1000 nM	–
COc1ccc(-c2nc3c(C(=O)N4CCN(C(C(=O)N(C)C)c5ccccc5)C[C@H]4C)cnn3c(C(F)(F)F)c2C)cc1 (stereo partly drawn) [1-piperazineacetamide, 4-[[5-(4-methoxyphenyl)-6-methyl-7-(trifluoromethyl)pyrazolo[1,5-α]pyrimidin-3-yl]carbonyl]-N,N,3-trimethyl-α-phenyl-, (3R)-]	< 1000 nM	< 1000 nM	–
COc1ccc(-c2nc3c(C(=O)N4CCN(C(C(=O)O)c5ccccc5)C[C@H]4C)cnn3c(C(F)(F)F)c2C)cc1 (stereo partly drawn) [1-piperazineacetic acid, 4-[[5-(4-methoxyphenyl)-6-methyl-7-(trifluoromethyl)pyrazolo[1,5-α]pyrimidin-3-yl]carbonyl]-3-methyl-α-phenyl-, (3R)-]	> 10100 nM	> 10100 nM	–
COC(=O)C(c1ccccc1)N1CCN(C(=O)c2cnn3c(C(F)(F)F)c(C)c(-c4ccc(OC)cc4)nc23)[C@H](C)C1 (stereo partly drawn) [1-piperazineacetic acid, 4-[[5-(4-methoxyphenyl)-6-methyl-7-(trifluoromethyl)pyrazolo[1,5-α]pyrimidin-3-yl]carbonyl]-3-methyl-α-phenyl-, methyl ester, (3R)-]	< 1000 nM	< 1000 nM	–
COc1ccc(-c2nc3c(C(=O)N4CCN(C(C#N)c5ccccc5)C[C@H]4C)cnn3c(C(F)(F)F)c2C)cc1 (stereo partly drawn) [1-piperazineacetonitrile, 4-[[5-(4-methoxyphenyl)-6-methyl-7-(trifluoromethyl)pyrazolo[1,5-α]pyrimidin-3-yl]carbonyl]-3-methyl-α-phenyl-, (3R)-]	< 1000 nM	< 1000 nM	–
COc1ccc(-c2nc3c(C(=O)N4CCN([C@@H](C)c5ccc(C#N)s5)C[C@H]4C)cnn3c(C(F)(F)F)c2C)cc1 [2-thiophenecarbonitrile, 5-[(1S)-1-[(3R)-4-[[5-(4-methoxyphenyl)-6-methyl-7-(trifluoromethyl)pyrazolo[1,5-α]pyrimidin-3-yl]carbonyl]-3-methyl-1-piperazinyl]ethyl]-]	< 1000 nM	1100 to 10000 nM	–
COc1ccc(-c2nc3c(C(=O)N4CCN(C(CO)c5ccc(C(=O)N(C)C)s5)C[C@H]4C)cnn3c(C(F)(F)F)c2C)cc1 (stereo partly drawn) [2-thiophenecarboxamide, 5-[2-hydroxy-1-[(3R)-4-[[5-(4-methoxyphenyl)-6-methyl-7-(trifluoromethyl)pyrazolo[1,5-α]pyrimidin-3-yl]carbonyl]-3-methyl-1-piperazinyl]ethyl]-N,N-dimethyl-]	> 10100 nM	> 10100 nM	–
COc1ccc(-c2nc3c(C(=O)N4CCN(C(CO)c5ccc(C(=O)O)s5)C[C@H]4C)cnn3c(C(F)(F)F)c2C)cc1 (stereo partly drawn) [2-thiophenecarboxylic acid, 5-[2-hydroxy-1-[(3R)-4-[[5-(4-methoxyphenyl)-6-methyl-7-(trifluoromethyl)pyrazolo[1,5-α]pyrimidin-3-yl]carbonyl]-3-methyl-1-piperazinyl]ethyl]-]	1100 to 10000 nM	> 10100 nM	–
COc1ccc(-c2nc3c(C(=O)N4CCN(C(CO)c5ccccc5NC(C)=O)C[C@H]4C)cnn3c(C(F)(F)F)c2C)cc1 (stereo partly drawn) [acetamide, N-[2-[2-hydroxy-1-[(3R)-4-[[5-(4-methoxyphenyl)-6-methyl-7-(trifluoromethyl)pyrazolo[1,5-α]pyrimidin-3-yl]carbonyl]-3-methyl-1-piperazinyl]ethyl]phenyl]-]	> 10100 nM	> 10100 nM	–
COc1ccc(-c2nc3c(C(=O)N4CCN(C(CNC(C)=O)c5ccccc5)C[C@H]4C)cnn3c(C(F)(F)F)c2C)cc1 (stereo partly drawn) [acetamide, N-[2-[(3R)-4-[[5-(4-methoxyphenyl)-6-methyl-7-(trifluoromethyl)pyrazolo[1,5-α]pyrimidin-3-yl]carbonyl]-3-methyl-1-piperazinyl]-2-phenylethyl]-]	< 1000 nM	< 1000 nM	–
COc1ccc(-c2nc3c(C(=O)N4CCN([C@@H](CO)c5ccccc5)C[C@H]4C)cnn3c(C(F)(F)F)c2C)cc1 [drawing 44, methanone, [(2R)-4-[(1R)-2-hydroxy-1-phenylethyl]-2-methyl-1-piperazinyl][5-(4-methoxyphenyl)-6-methyl-7-(trifluoromethyl)pyrazolo[1,5-α]pyrimidin-3-yl]-]	–	–	< 1000 nM
CCC(c1ccccc1)N1CCN(C(=O)c2cnn3c(C(F)(F)F)cc(-c4ccc(OC)cc4)nc23)CC1 (stereo not drawn) [methanone, [5-(4-methoxyphenyl)-7-(trifluoromethyl)pyrazolo[1,5-a]pyrimidin-3-yl][4-(1-phenylpropyl)-1-piperazinyl]-]	1100 to 10000 nM	–	–
COc1ccc(-c2cc(C(F)(F)F)n3ncc(C(=O)N4CCN(C(C)c5ccccc5)CC4)c3n2)cc1 (stereo not drawn) [methanone, [5-(4-methoxyphenyl)-7-(trifluoromethyl)pyrazolo[1,5-α]pyrimidin-3-yl][4-(1-phenylethyl)-1-piperazinyl]-]	1100 to 10000 nM	–	–
COc1ccc(-c2cc(C(F)(F)F)n3ncc(C(=O)N4CCN([C@@H](C)c5ccccc5)CC4)c3n2)cc1 [methanone, [5-(4-methoxyphenyl)-7-(trifluoromethyl)pyrazolo[1,5-α]pyrimidin-3-yl][4-(1-phenylethyl)-1-piperazinyl]-]	1100 to 10000 nM	–	–
COc1ccc(-c2cc(C(F)(F)F)n3ncc(C(=O)N4CCN([C@H](C)c5ccccc5)CC4)c3n2)cc1 [methanone, [5-(4-methoxyphenyl)-7-(trifluoromethyl)pyrazolo[1,5-α]pyrimidin-3-yl][4-(1-phenylethyl)-1-piperazinyl]-]	1100 to 10000 nM	–	–
COc1ccc(-c2cc(C(F)(F)F)n3ncc(C(=O)N4CCN(C(c5ccccc5)C(F)(F)F)CC4)c3n2)cc1 (stereo not drawn) [methanone, [5-(4-methoxyphenyl)-7-(trifluoromethyl)pyrazolo[1,5-α]pyrimidin-3-yl][4-(2,2,2-trifluoro-1-phenylethyl)-1-piperazinyl]-]	< 1000 nM	–	–
